# According to PubChem BioAssay (NCI):
#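 A five-concentration, 48-hour dose response in 96-well plates underlies each endpoint, interpolated linearly between surrounding concentrations. GI50 marks 50% less growth. TGI: total growth inhibition.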
# Assays:
# Assay in all cases: DTP human tumour cell line panel, 48 h
# [1] = test system: A549 NSCLC
# [2] = test system: U251 CNS
# [3] = test system: LOX IMVI melanoma
# [4] = test system: HOP-62 NSCLC
# [5] = test system: SNB-75 CNS
# [6] = test system: SW-620 colon
# [7] = test system: SR leukemia
# [8] = test system: RXF 393 renal
# [9] = test system: SK-OV-3 ovarian
# [10] = test system: IGROV1 ovarian
# [11] = test system: K-562 leukemia
# [12] = test system: MALME-3M melanoma
# [13] = test system: CCRF-CEM leukemia
# [14] = test system: NCI-H460 lung
# [15] = test system: NCI-H23 lung
# [16] = test system: HOP-92 NSCLC
# [17] = test system: UACC-62 melanoma
# [18] = test system: SK-MEL-5 melanoma
# [19] = test system: SF-268 CNS
# [20] = test system: BT-549 breast
# [21] = test system: MCF7 breast
# [22] = test system: SK-MEL-28 melanoma
# [23] = test system: HCC-2998 colon
# [24] = test system: KM12 colon
# [25] = test system: M14 melanoma
# [26] = test system: NCI-H226 lung
# [27] = test system: HCT-116 colon
# [28] = test system: OVCAR-4 ovarian
# [29] = test system: HL-60(TB) leukemia
# [30] = test system: NCI-H522 lung
# [31] = test system: TK-10 renal
# [32] = test system: SN12C renal
# [33] = test system: SK-MEL-2 melanoma
# [34] = test system: OVCAR-5 ovarian
# [35] = test system: 786-0 renal
# [36] = test system: RPMI-8226 leukemia
# [37] = test system: MOLT-4 leukemia
# [38] = test system: HT29 colon
# [39] = test system: SF-295 CNS
# [40] = test system: DU-145 prostate
# [41] = test system: EKVX NSCLC
# [42] = test system: HS 578T breast
# [43] = test system: SF-539 CNS
# [44] = test system: MDA-MB-231 breast
# [45] = test system: HCT-15 colon
# [46] = test system: PC-3 prostate
# [47] = test system: UACC-257 melanoma
# [48] = test system: COLO 205 colon
# [49] = test system: UO-31 renal
# [50] = test system: SNB-19 CNS
# [51] = test system: MDA-MB-435
# [52] = test system: NCI/ADR-RES ovarian
# [53] = test system: OVCAR-3 ovarian
# [54] = test system: CAKI-1 renal
# [55] = test system: A498 renal
# [56] = test system: ACHN renal
# [57] = test system: T-47D breast
# [58] = test system: OVCAR-8 ovarian
compound,measurement,setting,value
NS(=O)(=O)c1ccc(C2C3=C(CCCC3=O)OC3=C2C(=O)c2ccccc2C3=O)cc1 (stereo unspecified),GI50,[1],1.42 µM
same,TGI,[1],3.53 µM
same,GI50,[2],0.318 µM
same,TGI,[2],1.05 µM
same,GI50,[3],0.136 µM
same,TGI,[3],1.04 µM
same,GI50,[4],1.49 µM
same,TGI,[4],2.91 µM
same,GI50,[5],0.259 µM
same,TGI,[5],1.17 µM
same,GI50,[6],0.417 µM
same,TGI,[6],1.33 µM
same,GI50,[7],0.47 µM
same,TGI,[7],3.88 µM
same,GI50,[8],1.45 µM
same,TGI,[8],2.84 µM
same,GI50,[9],1.99 µM
same,TGI,[9],3.76 µM
same,GI50,[10],0.347 µM
same,TGI,[10],1.2 µM
same,GI50,[11],0.46 µM
same,TGI,[11],2.35 µM
same,GI50,[12],0.319 µM
same,TGI,[12],1.09 µM
same,GI50,[13],0.383 µM
same,TGI,[13],2.09 µM
same,GI50,[14],0.589 µM
same,TGI,[14],2.12 µM
same,GI50,[15],0.198 µM
same,TGI,[15],1.15 µM
same,GI50,[16],0.847 µM
same,TGI,[16],2.48 µM
same,GI50,[17],0.24 µM
same,TGI,[17],0.567 µM
same,GI50,[18],1.18 µM
same,TGI,[18],2.43 µM
same,GI50,[19],0.386 µM
same,TGI,[19],1.66 µM
same,GI50,[20],1.12 µM
same,TGI,[20],2.35 µM
same,GI50,[21],0.221 µM
same,TGI,[21],0.752 µM
same,GI50,[22],1.42 µM
same,TGI,[22],2.92 µM
same,GI50,[23],1.47 µM
same,TGI,[23],3.11 µM
same,GI50,[24],1.22 µM
same,TGI,[24],3.27 µM
same,GI50,[25],0.455 µM
same,TGI,[25],1.68 µM
same,GI50,[26],1.75 µM
same,TGI,[26],3.36 µM
same,GI50,[27],0.253 µM
same,TGI,[27],0.725 µM
same,GI50,[28],0.19 µM
same,TGI,[28],0.824 µM
same,GI50,[29],0.254 µM
same,TGI,[29],0.559 µM
same,GI50,[30],0.174 µM
same,TGI,[30],0.563 µM
same,GI50,[31],1.78 µM
same,TGI,[31],3.17 µM
same,GI50,[32],0.319 µM
same,TGI,[32],1.03 µM
same,GI50,[33],0.604 µM
same,TGI,[33],2.38 µM
same,GI50,[34],1.7 µM
same,TGI,[34],3.51 µM
same,GI50,[35],1.64 µM
same,TGI,[35],3.02 µM
same,GI50,[36],0.41 µM
same,TGI,[36],1.99 µM
same,GI50,[37],0.293 µM
same,TGI,[37],0.848 µM
same,GI50,[38],1.07 µM
same,TGI,[38],5.17 µM
same,GI50,[39],1.57 µM
same,TGI,[39],3.31 µM
same,GI50,[40],0.74 µM
same,TGI,[40],1.99 µM
same,GI50,[41],0.699 µM
same,TGI,[41],2.53 µM
same,GI50,[42],1.27 µM
same,TGI,[42],9.4 µM
same,GI50,[43],0.277 µM
same,TGI,[43],0.761 µM
same,GI50,[44],0.318 µM
same,TGI,[44],0.938 µM
same,GI50,[45],1.33 µM
same,TGI,[45],3.46 µM
same,GI50,[46],0.371 µM
same,TGI,[46],1.33 µM
same,GI50,[47],0.275 µM
same,TGI,[47],0.922 µM
same,GI50,[48],0.348 µM
same,TGI,[48],1.29 µM
same,GI50,[49],1.55 µM
same,TGI,[49],2.92 µM
same,GI50,[50],1.24 µM
same,TGI,[50],2.52 µM
same,GI50,[51],0.19 µM
same,TGI,[51],0.357 µM
same,GI50,[52],2.43 µM
same,TGI,[52],14.6 µM
same,GI50,[53],0.244 µM
same,TGI,[53],0.724 µM
same,GI50,[54],1.74 µM
same,TGI,[54],3.2 µM
same,GI50,[55],1.28 µM
same,TGI,[55],2.57 µM
same,GI50,[56],1.24 µM
same,TGI,[56],2.53 µM
OCCCCC#Cc1ccccc1C#Cc1ccccc1F,GI50,[1],15.7 µM
same,TGI,[1],34.5 µM
same,GI50,[2],16 µM
same,TGI,[2],33.6 µM
same,GI50,[3],17.4 µM
same,TGI,[3],31.6 µM
same,GI50,[4],12 µM
same,TGI,[4],26.1 µM
same,GI50,[5],> 100 µM
same,TGI,[5],> 100 µM
same,GI50,[6],22.2 µM
same,TGI,[6],44.4 µM
same,GI50,[8],7.63 µM
same,TGI,[8],25.6 µM
same,GI50,[9],23.8 µM
same,TGI,[9],58.4 µM
same,GI50,[10],15 µM
same,TGI,[10],33.1 µM
same,GI50,[11],23.2 µM
same,TGI,[11],47.2 µM
same,GI50,[57],16.1 µM
same,TGI,[57],42.6 µM
same,GI50,[12],26.1 µM
same,TGI,[12],46.9 µM
same,GI50,[13],24.6 µM
same,TGI,[13],48.7 µM
same,GI50,[14],25.9 µM
same,TGI,[14],60.5 µM
same,GI50,[15],20.2 µM
same,TGI,[15],43.1 µM
same,GI50,[16],22 µM
same,TGI,[16],64.2 µM
same,GI50,[17],16.5 µM
same,TGI,[17],32.6 µM
same,GI50,[18],23.6 µM
same,TGI,[18],52.3 µM
same,GI50,[19],25.3 µM
same,TGI,[19],62.4 µM
same,GI50,[20],21.7 µM
same,TGI,[20],52.7 µM
same,GI50,[21],42.1 µM
same,TGI,[21],> 100 µM
same,GI50,[22],27.3 µM
same,TGI,[22],72.9 µM
same,GI50,[58],20.8 µM
same,TGI,[58],47.9 µM
same,GI50,[23],17.8 µM
same,TGI,[23],33 µM
same,GI50,[24],18.8 µM
same,TGI,[24],37.7 µM
same,GI50,[25],14.6 µM
same,TGI,[25],29.6 µM
same,GI50,[26],24 µM
same,TGI,[26],49.8 µM
same,GI50,[27],16.2 µM
same,TGI,[27],29.9 µM
same,GI50,[28],> 100 µM
same,TGI,[28],> 100 µM
same,GI50,[29],22.2 µM
same,TGI,[29],44.9 µM
same,GI50,[30],16.3 µM
same,TGI,[30],32.6 µM
same,GI50,[31],20.8 µM
same,TGI,[31],49.7 µM
same,GI50,[32],18.1 µM
same,TGI,[32],40.4 µM
same,GI50,[33],23.9 µM
same,TGI,[33],52.5 µM
same,GI50,[34],16.2 µM
same,TGI,[34],33.3 µM
same,GI50,[35],14.3 µM
same,TGI,[35],29.8 µM
same,GI50,[36],30.7 µM
same,TGI,[36],70 µM
same,GI50,[37],21.2 µM
same,TGI,[37],49.8 µM
same,GI50,[38],52 µM
same,TGI,[38],> 100 µM
same,GI50,[39],21.6 µM
same,TGI,[39],42.7 µM
same,GI50,[40],35.7 µM
same,TGI,[40],> 100 µM
same,GI50,[41],29.4 µM
same,TGI,[41],94.4 µM
same,GI50,[42],27.5 µM
same,TGI,[42],71.9 µM
same,GI50,[43],22 µM
same,TGI,[43],48.4 µM
same,GI50,[44],17 µM
same,TGI,[44],36.6 µM
same,GI50,[45],18 µM
same,TGI,[45],32.5 µM
same,GI50,[46],20 µM
same,TGI,[46],48.2 µM
same,GI50,[47],18.9 µM
same,TGI,[47],39.2 µM
same,GI50,[48],16.4 µM
same,TGI,[48],31.3 µM
same,GI50,[49],20.7 µM
same,TGI,[49],46.5 µM
same,GI50,[50],17.5 µM
same,TGI,[50],36.8 µM
same,GI50,[51],18.9 µM
same,TGI,[51],37.2 µM
same,GI50,[52],21.1 µM
same,TGI,[52],46.7 µM
same,GI50,[53],19.7 µM
same,TGI,[53],43.6 µM
same,GI50,[54],24.2 µM
same,TGI,[54],51.4 µM
same,GI50,[55],26.9 µM
same,TGI,[55],82.5 µM
same,GI50,[56],25.5 µM
same,TGI,[56],53.6 µM
